Consider 2 compounds from patent publication US8106235B2, “Biphenyl compound selective agonists of gamma RAR receptors” (Galderma Research & Development, priority 2005, dated 2012).

In data set [1] the test system is RAR gamma. Put plainly: Transactivation test (luciferase reporter, apparent Kd by Schild regression against a reference antagonist), RAR gamma. It is filed as cell-based. The conditions noted are these: statement in words, from the Kdapp values of the transactivation test. Here is the method:
(§1) The activation of the receptors by an agonist (activator) in HeLa cells results in the expression of a reporter gene, luciferase, which, in the presence of a substrate, generates light. It is thus possible to measure the activation of the receptors by quantifying the luminescence produced after incubation of the cells in the presence of a reference antagonist. The activating products displace the antagonist from its site, thus allowing activation of the receptor. The activity is measured by quantifying the increase in the light produced. This measurement makes it possible to determine the activator activity of the compound that can be used in the invention.
(§2) In this study, a constant which is the affinity of the molecule for the receptor is determined. Since this value can fluctuate according to the basal activity and the expression of the receptor, it is designated apparent Kd (KdApp).
(§3) In order to determine this constant, “cross curves” of the test product (4′-(3′-hydroxypropyl)-3′-(5,5,8,8-tetramethyl-5,6,7,8-tetrahydronaphthalen-2-yl)biphenyl-4-carboxylic acid and 4′-(2,3-dihydroxypropyl)-3′-(5,5,8,8-tetramethyl-5,6,7,8-tetrahydronaphthalen-2-yl)biphenyl-4-carboxylic acid), against a reference antagonist otherwise known as reference ligand, 4-(5,5-dimethyl-8-p-tolyl-5,6-dihydronaphthalen-2-ylethynyl)benzoic acid, are produced. The test product is used at 10 concentrations and the reference antagonist at 7 concentrations. In each well (of a 96-well plate), the cells are in contact with one concentration of the test product and one concentration of the reference antagonist. […]
(§4) These cross curves make it possible to determine the AC50 values (concentration at which 50% activation of the receptor is observed) of the reference ligand at various concentrations of test product. These AC50 values are used to calculate the Schild regression by plotting a straight line corresponding to the Schild equation (“Quantitation in receptor pharmacology” Terry P. Kenakin, Receptors and Channels, 2001, 7, 371-385).
(§5) In the case of an agonist, the AC50 is calculated by plotting the curve of the product at the concentration of the reference ligand giving 80% activation. The percentage activation which corresponds to the maximum level of activity obtained is also measured. […]
(§6) The culture medium is removed by turning the plates over, and […] of a 1:1 PBS (phosphate buffered solution)/luciferin mixture are added to each well. After 5 minutes, the plates are read using the luminescence reader.
In general terms: Reporter assays use an easily measured gene product as a stand-in for the process of interest.

Data set [2] addresses T1, RAR gamma (Homo sapiens, UniProt P13631).
T1 construct: RAR gamma Kdapp; apparent Kd; It drives the ERE-βGlob-Luc reporter
T1 sequence (P13631 185-419 limits assumed): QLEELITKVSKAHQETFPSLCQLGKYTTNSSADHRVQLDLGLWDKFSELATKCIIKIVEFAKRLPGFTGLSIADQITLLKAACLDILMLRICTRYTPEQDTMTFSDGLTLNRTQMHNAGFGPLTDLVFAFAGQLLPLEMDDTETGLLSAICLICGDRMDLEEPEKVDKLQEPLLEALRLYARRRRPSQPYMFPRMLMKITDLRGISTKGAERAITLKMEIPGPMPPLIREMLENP
The description is as above. It is filed as cell-based. As to conditions: HeLa stable transfectants, ERE-βGlob-Luc reporter, RAR gamma; apparent Kd; read-out: RAR gamma Kdapp. The protocol: as §1, §2, §3, §4, §5, §6

Data set [3] deals with T2, RAR beta (Homo sapiens, UniProt P10826).
T2 construct: It drives the ERE-βGlob-Luc reporter
T2 sequence (P10826 183-417 limits assumed): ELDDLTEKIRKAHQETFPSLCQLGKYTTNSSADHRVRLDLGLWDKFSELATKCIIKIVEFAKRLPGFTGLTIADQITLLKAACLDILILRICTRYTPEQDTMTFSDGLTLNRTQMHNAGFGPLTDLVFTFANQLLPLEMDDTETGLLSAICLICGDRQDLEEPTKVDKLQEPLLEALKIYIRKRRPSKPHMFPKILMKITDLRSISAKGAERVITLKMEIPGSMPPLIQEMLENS
Put plainly: Transactivation test (luciferase reporter, apparent Kd by Schild regression against a reference antagonist), RAR beta. The conditions noted are these: HeLa stable transfectants, ERE-βGlob-Luc reporter, read-out: RAR beta Kdapp. It is filed as cell-based. Here is the method: as §1
(§7) In this study, a constant which is the affinity of the molecule for the receptor is determined. […]
as §4
(§8) In the case of an agonist, the AC50 is calculated by plotting the curve of the product at the concentration of the reference ligand giving 80% activation. […]

The target of data set [4] is T3, RAR alpha (Homo sapiens, UniProt P10276).
T3 construct: It drives the ERE-βGlob-Luc reporter
T3 sequence (P10276 183-417 limits assumed): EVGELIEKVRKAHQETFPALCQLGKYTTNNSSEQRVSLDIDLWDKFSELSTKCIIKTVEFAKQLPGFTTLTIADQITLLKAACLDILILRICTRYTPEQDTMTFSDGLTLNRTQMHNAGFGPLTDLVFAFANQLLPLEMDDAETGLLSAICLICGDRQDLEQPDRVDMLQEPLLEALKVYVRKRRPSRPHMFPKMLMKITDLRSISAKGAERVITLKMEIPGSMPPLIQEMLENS
Put plainly: Transactivation test (luciferase reporter, apparent Kd by Schild regression against a reference antagonist), RAR alpha. It counts as cell-based. As to conditions: HeLa stable transfectants, ERE-βGlob-Luc reporter, read-out: RAR alpha Kdapp. The protocol: as §1, §7, §4, §8

The melting point is the temperature of the solid-liquid transition. `CC1(C)CCC(C)(C)c2cc(-c3cc(-c4ccc(C(=O)O)cc4)ccc3CCCO)ccc21` [Example 1, 4′-(3-hydroxypropyl)-3′-(5,5,8,8-tetramethyl-5,6,7,8-tetrahydronaphthalen-2-yl)biphenyl-4-carboxylic acid] came in with a melting point of 203 °C. The “selectivity for the RAR gamma receptor subtype in comparison with RAR alpha and RAR beta” value in data set [1] is given as “better selectivity of these compounds for the RAR gamma receptor subtype”. Also, the Kd in data set [2] turned out to be 0.1 nM. In data set [3], the Kd came out at 2 nM. Besides, in data set [4], the Kd was 15 nM.

Regarding `CC1(C)CCC(C)(C)c2cc(-c3cc(-c4ccc(C(=O)O)cc4)ccc3CC(O)CO)ccc21` (stereo not drawn) [Example 2, 4′-(2,3-dihydroxypropyl)-3′-(5,5,8,8-tetramethyl-5,6,7,8-tetrahydronaphthalen-2-yl)biphenyl-4-carboxylic acid], the “selectivity for the RAR gamma receptor subtype in comparison with RAR alpha and RAR beta” value in data set [1] is “better selectivity of these compounds for the RAR gamma receptor subtype”. Moreover, the Kd was 0.5 nM in data set [2], 15 nM in data set [3] and 60 nM in data set [4].
